Results from patent US20060134286A1, “Gallocatechin gallate-containing composition” (Suntory Limited, priority 2002, published 2006).

System: Streptococcus mutans (MT8148R)
Experiment: Antibacterial activity against Streptococcus mutans (colony count after 1 hour contact with sample)
Assay type: cell-based
Settings: final concentration of the sample 1 mg/mL; 37° C. for 1 hour; colonies counted on MS agar medium after 2 days
Description: Streptococcus mutans (MT8148R) was cultured in a brain heart infusion medium (BHI, manufactured by Difco) at 37° C. for 18 hours. After collection of the cells by centrifugation, the precipitate was washed three times with a phosphate buffer solution (PBS, pH 6.8). Then the cells were suspended to give an absorbance of 0.5 at 550 nm. Thus, about 2×10^7 colonies per mL (expressed in colony forming unit: CFU) were formed . Next, an equal amount of a previously prepared sample solution was added to the suspension and the resultant mixture was allowed to stand at 37° C. for 1 hour. 0.1 mL of this liquid mixture or the same mixture seriously 10-fold diluted was sowed on a Mitis salivarius agar medium (MS agar medium, manufactured by Difco). After culturing at 37° C. for 2 days, the colonies thus formed were counted. The antibacterial activity was indicated in the logarithm of CFU of test group/CFU of control lot (i.e., the reducing ratio).
The mixing ratio of EGCG to GCG (manufactured by Sigma) was varied so as to adjust the final concentration of the sample to 1 mg/mL and thus the antibacterial activity was examined. […]

| Compound | Antibacterial activity (logarithm of CFU of test group/CFU of control lot, the reducing ratio) |
| --- | --- |
| O=C(O[C@@H]1Cc2c(O)cc(O)cc2O[C@H]1c1cc(O)c(O)c(O)c1)c1cc(O)c(O)c(O)c1 [GCG, gallocatechin gallate] | −3.17 |
| (−)-epigallocatechin gallate [EGCG] | −3.50 |
